The text below walks through data of patent US11242344B2, “(4-hydroxypyrrolidin-2-yl)-heterocyclic compounds and methods of use thereof” (Genentech, Inc., priority 2017, dated 2022).

The target of experiment [1] is NanoLuc VHL fusion protein (Homo sapiens (Human), UniProt P40337). Briefly: VHL HEK-293 BRET Assay (NanoBRET Target Engagement). Format: cell-based. To be noted: geometric mean where more than one measurement. The gist of the method: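 HEK293 cells stably expressing NanoLuc-VHL, 2 h with compound titration and 1 uM final tracer, then Nano-Glo substrate plus extracellular NanoLuc inhibitor. BRET ratio 610/460 nm, background-corrected with no-tracer wells, normalised to DMSO and 10 uM unlabeled VHL antagonist controls; IC50 by four-parameter fit.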
Chain of NanoLuc VHL fusion protein (P40337 whole entry, looked up, the tested form may be a part): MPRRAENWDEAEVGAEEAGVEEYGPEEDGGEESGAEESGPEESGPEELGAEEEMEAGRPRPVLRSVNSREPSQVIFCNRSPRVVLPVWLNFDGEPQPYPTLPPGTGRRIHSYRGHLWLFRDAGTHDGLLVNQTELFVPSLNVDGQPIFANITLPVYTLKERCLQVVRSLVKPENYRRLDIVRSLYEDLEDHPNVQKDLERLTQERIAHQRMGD
Chain of NanoLuc VHL fusion protein (Q15370 whole entry partner, looked up, the tested form may be a part): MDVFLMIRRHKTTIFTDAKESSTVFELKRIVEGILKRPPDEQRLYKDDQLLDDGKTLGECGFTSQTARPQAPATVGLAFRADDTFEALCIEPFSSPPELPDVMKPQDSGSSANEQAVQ
Chain of NanoLuc VHL fusion protein (Q15369 whole entry partner, looked up, the tested form may be a part): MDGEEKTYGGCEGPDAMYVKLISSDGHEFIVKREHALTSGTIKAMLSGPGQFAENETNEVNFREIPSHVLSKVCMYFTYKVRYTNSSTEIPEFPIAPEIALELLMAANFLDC
Background: Bioluminescence resonance energy transfer reports proximity on the nanometre scale.

Experiment [2] deals with VHL co-expressed with Elongins B and C (Homo sapiens (Human), UniProt P40337). As to the kind of experiment: Surface Plasmon Resonance Assay. It counts as binding. Conditions: SPR measured VHL affinity; geometric mean where more than one measurement. A digest of the protocol: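 Binding kinetics by SPR at 20 °C: compound concentration series run from low to high at 80 μL/min over VHL–Elongin B/C complex, immobilized via avidin tag on SA chip. Buffer was HEPES pH 7.2 with 150 mM NaCl, TCEP, Tween 20, PEG3350 and 2% DMSO; association/dissociation times adjusted per compound.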
Chain of VHL co-expressed with Elongins B and C (P40337 whole entry, looked up): as the sequence (P40337 whole entry, looked up, the tested form may be a part) above
Chain of VHL co-expressed with Elongins B and C (Q15370 whole entry partner, looked up): as the sequence (Q15370 whole entry partner, looked up, the tested form may be a part) above
Chain of VHL co-expressed with Elongins B and C (Q15369 whole entry partner, looked up): as the sequence (Q15369 whole entry partner, looked up, the tested form may be a part) above

For a further experiment, the target named is VHL Elongin B/C complex (Homo sapiens (Human), UniProt P40337). Briefly: Fluorescence Polarization (FP) VHL Binding Assay. To be noted: VHL binding, FP assay; geometric mean where more than one measurement. A digest of the protocol:
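Readout is polarization of a TAMRA-coupled VHL ligand (1.67 nM final) displaced from the VHL(E55-D213)/Elongin B/C complex (2.64 nM final) after 1 h incubation at room temperature in pH 8.0 Tris buffer with 1% DMSO. Data normalized to no-VHL and compound-free controls, with compound fluorescence subtracted, and fitted by four-parameter curve for IC50.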
(Fluorescence polarisation rises when a labelled molecule tumbles more slowly, as on binding a larger partner.)

Chain of VHL Elongin B/C complex (P40337 whole entry, looked up): as the sequence (P40337 whole entry, looked up, the tested form may be a part) above
Chain of VHL Elongin B/C complex (Q15370 whole entry partner, looked up): as the sequence (Q15370 whole entry partner, looked up, the tested form may be a part) above
Chain of VHL Elongin B/C complex (Q15369 whole entry partner, looked up): as the sequence (Q15369 whole entry partner, looked up, the tested form may be a part) above

For the compound `Cc1cc([C@@H](C(=O)N2C[C@H](O)C[C@H]2C2=NOC3(CCc4ccccc43)N2)C(C)C)on1` (single isomer, unassigned) [Example 130.1], the IC50 (usually the concentration that gives 50% inhibition) in experiment [1] was 100 µM; on VHL Elongin B/C complex, 96.1 µM. Also, the Kd (as a rule, a measure of binding affinity in units of concentration) in experiment [2] was 83 µM.
As for `Cc1cc([C@@H](C(=O)N2C[C@H](O)C[C@H]2C2=NOC3(CCCC3)N2)C(C)C)on1` [Example 127.1, (S)-1-((2S,4R)-4-hydroxy-2-(1-oxa-2,4-diazaspiro[4.4]non-2-en-3-yl)pyrrolidin-1-yl)-3-methyl-2-(3-methylisoxazol-5-yl)butan-1-one], the IC50 is 100 µM in experiment [1] and at least 400 µM at VHL Elongin B/C complex. This compound also gave a Kd in experiment [2] of at least 150 µM.
The matching figures for `Cc1ncsc1-c1ccc([C@]2(C)NC(C3C[C@@H](O)CN3C(=O)C(c3cn(C)nn3)C(C)C)=NC2=O)cc1` (single isomer, unassigned) [Example 118.2]: 0.939 µM, 0.418 µM and 0.128 µM.
The matching figures for `CC(=O)N1CCCCC1C(=O)N1C[C@H](O)CC1C1=NC(=O)[C@](C)(c2ccc(-c3scnc3C)cc2)N1` (single isomer, unassigned) [Example 124.4]: 100 µM, at least 400 µM and at least 150 µM.
The matching figures for `Cc1cc([C@H](C(=O)N2C[C@H](O)C[C@H]2C2=NO[C@@](C)(c3ccc(Br)cc3)N2)C(C)C)on1` (mixture of isomers) [Example 113.2, (2S)-1-((2S,4R)-2-(5-(4-Bromophenyl)-5-methyl-4,5-dihydro-1,2,4-oxadiazol-3-yl)-4-hydroxypyrrolidin-1-yl)-3-methyl-2-(3-methylisoxazol-5-yl)butan-1-one and (2R)-1-((2S,4R)-2-(5-(4-Bromophenyl)-5-methyl-4,5-dihydro-1,2,4-oxadiazol-3-yl)-4-hydroxypyrrolidin-1-yl)-3-methyl-2-(3-methylisoxazol-5-yl)butan-1-one]: 2.94 µM, 6.3 µM and 2.49 µM.
Turning to `Cc1cc(C(C(=O)N2C[C@H](O)C[C@H]2C2=NN(CC(F)(F)F)C(C)(C)N2)C(C)C)on1` (single isomer, unassigned) [Example 134.1], the IC50 was 100 µM in experiment [1] and at least 400 µM on VHL Elongin B/C complex. This compound yielded a Kd in experiment [2] of at least 150 µM.
For `Cc1cc([C@H](C(=O)N2C[C@H](O)C[C@H]2C2=NO[C@](c3ccccc3)(C(F)(F)F)N2)C(C)C)on1` (mixture of isomers) [Example 114.2, (2S)-1-((2S,4R)-4-Hydroxy-2-(5-phenyl-5-(trifluoromethyl)-4,5-dihydro-1,2,4-oxadiazol-3-yl)pyrrolidin-1-yl)-3-methyl-2-(3-methylisoxazol-5-yl)butan-1-one and (2R)-1-((2S,4R)-4-Hydroxy-2-(5-phenyl-5-(trifluoromethyl)-4,5-dihydro-1,2,4-oxadiazol-3-yl)pyrrolidin-1-yl)-3-methyl-2-(3-methylisoxazol-5-yl)butan-1-one], the IC50 in experiment [1] was 100 µM; on VHL Elongin B/C complex it was 400 µM. Besides, in experiment [2], the Kd came out at 150 µM.
The matching figures for `Cc1cc(C(C(=O)N2C[C@H](O)CC2C2=NC(C)(C)C(C)(C)N2)C(C)C)on1` (stereo partly drawn) [Example 136.1, 1-((4R)-4-Hydroxy-2-(4,4,5,5-tetramethyl-4,5-dihydro-1H-imidazol-2-yl)pyrrolidin-1-yl)-3-methyl-2-(3-methylisoxazol-5-yl) butan-1-one]: 77.1 µM, 93.6 µM and at least 150 µM.
The matching figures for `Cc1cc(C(C(=O)N2C[C@H](O)CC2C2=NC(=O)[C@](C)(c3ccc(-c4scnc4C)cc3)N2)C(C)C)sn1` (single isomer, unassigned) [Example 119.3]: 71.1 µM, 72.4 µM and 17.5 µM.
In the case of `Cc1cc(C(C(=O)N2C[C@H](O)C[C@H]2C2=NN(c3ccccc3)C(C)(C)N2)C(C)C)on1` (single isomer, unassigned) [Example 135.1], the half-inhibitory concentration (IC50) was 100 µM in experiment [1] and at least 400 µM at VHL Elongin B/C complex. Moreover, in experiment [2], the Kd is at least 150 µM.
The matching figures for `CC/C(=C(\c1ccc(O)cc1)c1ccc(OCCN(C)C(=O)CCCOCCOc2cc(C(C(=O)N3C[C@H](O)CC3C3=NC(=O)[C@](C)(c4ccc(-c5scnc5C)cc4)N3)C(C)C)on2)cc1)c1ccccc1` (single isomer, unassigned) [Example 1003.3]: 51.6 µM, 30.4 µM and 67.1 µM.
Consider `Cc1cc([C@H](C(=O)N2C[C@H](O)C[C@H]2C2=NOC(c3ccc(Br)cc3)(C(F)(F)F)N2)C(C)C)on1` (single isomer, unassigned) [Example 133.4], for which the results for the IC50 (in experiment [1]; on VHL Elongin B/C complex) were 52.3 µM and 54.9 µM, respectively. Further, binding in experiment [2] was put at a Kd of 17.4 µM.
The matching figures for `Cc1ncsc1-c1ccc([C@]2(C)NC(C3C[C@@H](O)CN3C(=O)C(c3cn(C)nn3)C(C)C)=NC2=O)cc1` (single isomer, unassigned) [Example 118.3]: 100 µM, 150 µM and 21.2 µM.
The matching figures for `Cc1ncsc1-c1ccc([C@]2(C)NC(C3C[C@@H](O)CN3C(=O)[C@@H]3CCCCN3S(C)(=O)=O)=NC2=O)cc1` (single isomer, unassigned) [Example 122.2]: 39 µM, 16.7 µM and 6.83 µM.
The matching figures for `CC(=O)N1CCCCC1C(=O)N1C[C@H](O)CC1C1=NC(=O)[C@](C)(c2ccc(-c3scnc3C)cc2)N1` (single isomer, unassigned) [Example 124.1]: 100 µM, at least 400 µM and at least 150 µM.
With `Cc1ncsc1-c1ccc([C@]2(C)NC(C3C[C@@H](O)CN3C(=O)C3N(S(C)(=O)=O)CCC3(C)C)=NC2=O)cc1` (single isomer, unassigned) [Example 125.2], the values for the IC50 (in experiment [1]; at VHL Elongin B/C complex) were 100 µM and at least 400 µM, respectively. The compound also registered a dissociation constant Kd in experiment [2] of at least 150 µM.
Take `Cc1ncsc1-c1ccc([C@]2(C)NC(C3C[C@@H](O)CN3C(=O)C(c3cnn(C)c3)C(C)C)=NC2=O)cc1` (single isomer, unassigned) [Example 110.3]: the IC50 in experiment [1] was at least 100 µM; at VHL Elongin B/C complex it was at least 400 µM. In experiment [2], the Kd was found to be 150 µM.
The matching figures for `Cc1ncsc1-c1ccc([C@]2(C)NC(C3C[C@@H](O)CN3C(=O)C3N(S(C)(=O)=O)CCC3(C)C)=NC2=O)cc1` (single isomer, unassigned) [Example 125.1]: 100 µM, 179 µM and 14.7 µM.
The matching figures for `Cc1ncsc1-c1ccc([C@]2(C)NC(C3C[C@@H](O)CN3C(=O)C(c3cn(C)nn3)C(C)C)=NC2=O)cc1` (single isomer, unassigned) [Example 118.1]: 100 µM, 157 µM and 61.5 µM.
Consider `Cc1cc([C@@H](C(=O)N2C[C@H](O)C[C@H]2C2=NO[C@](C)(c3ccc(Br)cc3)N2)C(C)C)on1` (mixture of isomers) [Example 113.3, (2S)-1-((2S,4R)-2-(5-(4-Bromophenyl)-5-methyl-4,5-dihydro-1,2,4-oxadiazol-3-yl)-4-hydroxypyrrolidin-1-yl)-3-methyl-2-(3-methylisoxazol-5-yl)butan-1-one and (2R)-1-((2S,4R)-2-(5-(4-Bromophenyl)-5-methyl-4,5-dihydro-1,2,4-oxadiazol-3-yl)-4-hydroxypyrrolidin-1-yl)-3-methyl-2-(3-methylisoxazol-5-yl)butan-1-one], for which the IC50 in experiment [1] came to 100 µM; at VHL Elongin B/C complex it was 400 µM. Moreover, the Kd in experiment [2] was determined as 90.8 µM.
The matching figures for `Cc1cc([C@H](C(=O)N2C[C@H](O)C[C@H]2C2=NOC(C)(c3ccccc3)N2)C(C)C)on1` (single isomer, unassigned) [Example 128.3]: 10.7 µM, 33.6 µM and 5.7 µM.
The matching figures for `CC(=O)N1CCC[C@H]1C(=O)N1C[C@H](O)CC1C1=NC(=O)[C@](C)(c2ccc(-c3scnc3C)cc2)N1` (single isomer, unassigned) [Example 121.1]: 100 µM, 65.5 µM and 29.2 µM.
The matching figures for `Cc1cc([C@H](C(=O)N2C[C@H](O)C[C@H]2C2=NO[C@@](c3ccccc3)(C(F)(F)F)N2)C(C)C)on1` (mixture of isomers) [Example 114.1, (2S)-1-((2S,4R)-4-Hydroxy-2-(5-phenyl-5-(trifluoromethyl)-4,5-dihydro-1,2,4-oxadiazol-3-yl)pyrrolidin-1-yl)-3-methyl-2-(3-methylisoxazol-5-yl)butan-1-one and (2R)-1-((2S,4R)-4-Hydroxy-2-(5-phenyl-5-(trifluoromethyl)-4,5-dihydro-1,2,4-oxadiazol-3-yl)pyrrolidin-1-yl)-3-methyl-2-(3-methylisoxazol-5-yl)butan-1-one]: 100 µM, 400 µM and 150 µM.
